Source: the NIST ThermoML archive (doi:10.1016/j.tca.2006.05.019)
Where “and” joins values, the source holds several entries; their conditions need not be identical. Equal entries are not always repeated.

Experiment: molar heat capacity at constant pressure
Details: 101.33 kPa, Crystal, Vacuum adiabatic calorimetry

O=P([O-])([O-])[O-].[Lu+3] [lutetium phosphate]
Details | molar heat capacity at constant pressure
6 K | 0.0357 J/K/mol
6.51 K | 0.0482 J/K/mol
7.08 K | 0.04711 J/K/mol
7.62 K | 0.06861 J/K/mol
8 K | 0.0845 J/K/mol
8.12 K | 0.1033 J/K/mol
8.6 K | 0.1229 J/K/mol
9.16 K | 0.1232 J/K/mol
9.76 K | 0.1438 J/K/mol
10 K | 0.165 J/K/mol
10.35 K | 0.1797 J/K/mol
10.95 K | 0.1984 J/K/mol
11.52 K | 0.2437 J/K/mol
12 K | 0.286 J/K/mol
12.05 K | 0.2931 J/K/mol
12.7 K | 0.351 J/K/mol
13.5 K | 0.4239 J/K/mol
14 K | 0.455 J/K/mol
14.29 K | 0.5003 J/K/mol
15.07 K | 0.5881 J/K/mol
15.96 K | 0.7241 J/K/mol
16 K | 0.676 J/K/mol
16.71 K | 0.8304 J/K/mol
17.45 K | 0.9728 J/K/mol
18 K | 0.962 J/K/mol
18.21 K | 1.085 J/K/mol
18.94 K | 1.201 J/K/mol
19.66 K | 1.318 J/K/mol
20 K | 1.32 J/K/mol
21.37 K | 1.733 J/K/mol
23.76 K | 2.354 J/K/mol
25 K | 2.54 J/K/mol
26.16 K | 3.067 J/K/mol
28.57 K | 3.861 J/K/mol
30 K | 4.26 J/K/mol
30.99 K | 4.819 J/K/mol
33.41 K | 5.784 J/K/mol
35 K | 6.39 J/K/mol
35.85 K | 6.862 J/K/mol
38.3 K | 7.989 J/K/mol
40 K | 8.83 J/K/mol
40.76 K | 9.131 J/K/mol
43.21 K | 10.48 J/K/mol
45 K | 11.45 J/K/mol
45.69 K | 11.91 J/K/mol
48.16 K | 13.16 J/K/mol
50 K | 14.18 J/K/mol
50.64 K | 14.44 J/K/mol
53.13 K | 15.87 J/K/mol
55 K | 16.93 J/K/mol
55.63 K | 17.16 J/K/mol
58.13 K | 18.55 J/K/mol
60 K | 19.67 J/K/mol
60.65 K | 19.95 J/K/mol
63.14 K | 21.38 J/K/mol
65 K | 22.38 J/K/mol
65.64 K | 22.73 J/K/mol
68.13 K | 23.87 J/K/mol
70 K | 25.05 J/K/mol
70.62 K | 25.39 J/K/mol
73.11 K | 26.96 J/K/mol
75 K | 27.68 J/K/mol
75.6 K | 28.21 J/K/mol
78.1 K | 29.35 J/K/mol
80 K | 30.26 J/K/mol
80.6 K | 30.69 J/K/mol
83.1 K | 31.8 J/K/mol
83.67 K | 31.97 J/K/mol
85 K | 32.8 J/K/mol
87.39 K | 33.75 J/K/mol
90 K | 35.28 J/K/mol
91 K | 35.61 J/K/mol
94.62 K | 37.52 J/K/mol
95 K | 37.72 J/K/mol
98.23 K | 39.26 J/K/mol
100 K | 40.1 J/K/mol
101.84 K | 41.01 J/K/mol
105.45 K | 42.73 J/K/mol
109.04 K | 44.39 J/K/mol
110 K | 44.74 J/K/mol
112.63 K | 45.93 J/K/mol
116.21 K | 47.44 J/K/mol
119.79 K | 49.06 J/K/mol
120 K | 49.17 J/K/mol
123.37 K | 50.6 J/K/mol
126.95 K | 52.07 J/K/mol
130 K | 53.39 J/K/mol
130.52 K | 53.52 J/K/mol
134.08 K | 54.89 J/K/mol
134.32 K | 54.86 J/K/mol
137.64 K | 56.24 J/K/mol
137.89 K | 56.62 J/K/mol
140 K | 57.42 J/K/mol
141.14 K | 57.72 J/K/mol
144.67 K | 59.01 J/K/mol
148.2 K | 60.39 J/K/mol
150 K | 61.25 J/K/mol
151.73 K | 61.98 J/K/mol
152.2 K | 62.31 J/K/mol
155.77 K | 63.71 J/K/mol
159.34 K | 65.02 J/K/mol
160 K | 64.87 J/K/mol
162.89 K | 66.21 J/K/mol
166.44 K | 67.34 J/K/mol
169.99 K | 68.5 J/K/mol
170 K | 68.32 J/K/mol
173.53 K | 69.66 J/K/mol
177.02 K | 70.76 J/K/mol
180 K | 71.58 J/K/mol
180.54 K | 71.85 J/K/mol
184.06 K | 72.87 J/K/mol
187.57 K | 73.85 J/K/mol
190 K | 74.68 J/K/mol
191.08 K | 75.02 J/K/mol
194.58 K | 76.04 J/K/mol
198.07 K | 77.09 J/K/mol
200 K | 77.61 J/K/mol
201.56 K | 78.14 J/K/mol
205.03 K | 78.99 J/K/mol
208.5 K | 79.97 J/K/mol
210 K | 80.41 J/K/mol
211.96 K | 80.72 J/K/mol
215.42 K | 81.51 J/K/mol
218.87 K | 82.45 J/K/mol
220 K | 83.06 J/K/mol
222.31 K | 83.48 J/K/mol
225.73 K | 84.25 J/K/mol
229.14 K | 85.1 J/K/mol
230 K | 85.6 J/K/mol
233.68 K | 86.38 J/K/mol
235.82 K | 87.08 J/K/mol
237.13 K | 87.2 J/K/mol
239.2 K | 87.62 J/K/mol
240 K | 88.01 J/K/mol
242.56 K | 88.31 J/K/mol
245.94 K | 89.1 J/K/mol
249.32 K | 90.16 J/K/mol
250 K | 90.31 J/K/mol
250.77 K | 90.59 J/K/mol
254.14 K | 91.42 J/K/mol
255.94 K | 91.8 J/K/mol
259.22 K | 92.4 J/K/mol
260 K | 92.51 J/K/mol
260.67 K | 92.92 J/K/mol
263.97 K | 93.72 J/K/mol
267.27 K | 94.37 J/K/mol
270 K | 94.6 J/K/mol
270.55 K | 94.95 J/K/mol
273.81 K | 95.59 J/K/mol
277.04 K | 96.19 J/K/mol
278.55 K | 96.28 J/K/mol and 96.26 J/K/mol
280 K | 96.61 J/K/mol
280.25 K | 96.75 J/K/mol
281.69 K | 96.92 J/K/mol and 96.9 J/K/mol
283.44 K | 97.38 J/K/mol
284.59 K | 97.37 J/K/mol
286.58 K | 97.91 J/K/mol
287.72 K | 97.96 J/K/mol
289.7 K | 98.45 J/K/mol
290 K | 98.53 J/K/mol
290.83 K | 98.55 J/K/mol
292.79 K | 99.14 J/K/mol
293.91 K | 99.28 J/K/mol
295.89 K | 99.69 J/K/mol
296.98 K | 99.82 J/K/mol
298.92 K | 100.3 J/K/mol
300 K | 100.4 J/K/mol
300.03 K | 100.5 J/K/mol
303.01 K | 100.9 J/K/mol
306.01 K | 101.4 J/K/mol
309.71 K | 101.9 J/K/mol
310 K | 102.1 J/K/mol
312.4 K | 102.4 J/K/mol
315.23 K | 102.9 J/K/mol
318.03 K | 103.6 J/K/mol
320 K | 103.8 J/K/mol
